Values belong to the compound of their own block, whether it stands above or below them. Calls of active or inactive are those of the source. The rule behind the calls is not given here.
Key:
Experiment in all cases: ABPP selectivity among brain hydrolases, two doses – biochemical, gel-based competitive ABPP, mouse brain membrane, set 3, selectivity assay for DAGLb inhibitor project, late-stage follow-up (AID 602321)
LYPLA1 = conditions: gel-based competitive ABPP fluorescence, stronger effect = higher value
APEH = conditions: gel-based competitive ABPP fluorescence, APEH, stronger effect = higher value
[1] = target: Monoacylglycerol lipase ABHD6 (Mus musculus) (UniProt Q8R2Y0); conditions: gel-based competitive ABPP fluorescence, stronger effect = higher value
Monoacylglycerol lipase ABHD6 (Mus musculus), sequence (Q8R2Y0 whole entry, looked up): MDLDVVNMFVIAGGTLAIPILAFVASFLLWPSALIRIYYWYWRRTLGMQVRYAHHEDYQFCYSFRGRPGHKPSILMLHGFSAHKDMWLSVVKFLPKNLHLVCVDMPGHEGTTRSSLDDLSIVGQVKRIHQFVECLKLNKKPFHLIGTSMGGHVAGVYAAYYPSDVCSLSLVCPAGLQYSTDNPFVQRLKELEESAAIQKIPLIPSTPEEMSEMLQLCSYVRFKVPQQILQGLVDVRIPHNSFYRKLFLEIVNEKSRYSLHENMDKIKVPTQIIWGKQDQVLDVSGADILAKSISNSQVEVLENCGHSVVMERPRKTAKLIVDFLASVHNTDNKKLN

[2] = target: Acyl-protein thioesterase 2 (Mus musculus) (UniProt Q9WTL7); conditions: gel-based competitive ABPP fluorescence, stronger effect = higher value
Acyl-protein thioesterase 2 (Mus musculus), sequence (Q9WTL7 whole entry, looked up): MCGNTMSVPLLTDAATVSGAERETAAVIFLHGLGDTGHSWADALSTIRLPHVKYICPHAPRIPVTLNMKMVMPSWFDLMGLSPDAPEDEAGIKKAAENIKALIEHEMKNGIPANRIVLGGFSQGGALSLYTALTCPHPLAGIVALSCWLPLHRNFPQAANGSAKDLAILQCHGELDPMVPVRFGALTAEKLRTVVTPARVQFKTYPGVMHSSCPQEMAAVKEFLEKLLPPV

FAAH = conditions: gel-based competitive ABPP fluorescence, stronger effect = higher value
[3] = target: Acyl-protein thioesterase 1 (Mus musculus) + Monoacylglycerol lipase ABHD6 (Mus musculus) + Acyl-protein thioesterase 2 (Mus musculus) (UniProt P97823+Q8R2Y0+Q9WTL7); conditions: gel-based competitive ABPP fluorescence
Acyl-protein thioesterase 1 (Mus musculus) + Monoacylglycerol lipase ABHD6 (Mus musculus) + Acyl-protein thioesterase 2 (Mus musculus) (UniProt P97823+Q8R2Y0+Q9WTL7), sequence (P97823 whole entry, looked up): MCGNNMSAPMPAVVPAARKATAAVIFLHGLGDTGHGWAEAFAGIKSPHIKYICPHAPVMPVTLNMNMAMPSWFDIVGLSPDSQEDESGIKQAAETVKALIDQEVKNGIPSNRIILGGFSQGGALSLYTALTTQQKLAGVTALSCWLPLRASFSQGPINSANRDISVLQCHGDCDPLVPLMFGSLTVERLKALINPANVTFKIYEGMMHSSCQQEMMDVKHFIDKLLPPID
Acyl-protein thioesterase 1 (Mus musculus) + Monoacylglycerol lipase ABHD6 (Mus musculus) + Acyl-protein thioesterase 2 (Mus musculus) (UniProt P97823+Q8R2Y0+Q9WTL7), sequence (Q8R2Y0 whole entry, looked up): as the sequence (Q8R2Y0 whole entry, looked up) above
Acyl-protein thioesterase 1 (Mus musculus) + Monoacylglycerol lipase ABHD6 (Mus musculus) + Acyl-protein thioesterase 2 (Mus musculus) (UniProt P97823+Q8R2Y0+Q9WTL7), sequence (Q9WTL7 whole entry, looked up): as the sequence (Q9WTL7 whole entry, looked up) above

[4] = system: Acyl-protein thioesterase 1 (Mus musculus) + Monoacylglycerol lipase ABHD6 (Mus musculus) + Acyl-protein thioesterase 2 (Mus musculus); conditions: gel-based competitive ABPP fluorescence

Structure (SMILES): O=C(N1CCCCC1Cc1ccccc1)n1cc(-c2ccc(-c3cccc(CO)c3)cc2)nn1 (centres undefined)
- inhibition (LYPLA1; at 10 µM): 0% (inactive)
- inhibition (LYPLA1; inhibition, at 1 µM): 0%
- inhibition (APEH; at 10 µM): 0% (inactive)
- inhibition (APEH; inhibition, at 1 µM): 0%
- inhibition ([1]; at 10 µM): 98%
- inhibition ([1]; inhibition, at 1 µM): 98%
- inhibition ([2]; LYPLA2, at 10 µM): 0% (inactive)
- inhibition ([2]; LYPLA2, inhibition, at 1 µM): 0%
- inhibition (FAAH; at 10 µM): 25% (inactive)
- inhibition (FAAH; inhibition, at 1 µM): 0%

Structure (SMILES): O=C(N1CCCCC1c1ccccc1)n1cc(-c2ccc(-c3ccc(CO)cc3)cc2)nn1 (centres undefined)
- inhibition (LYPLA1; at 10 µM): 90%
- inhibition (LYPLA1; inhibition, at 1 µM): 10%
- inhibition (APEH; at 10 µM): 25% (inactive)
- inhibition (APEH; inhibition, at 1 µM): 0%
- inhibition ([1]; at 10 µM): 98%
- inhibition ([1]; inhibition, at 1 µM): 98%
- inhibition ([2]; LYPLA2, at 10 µM): 90%
- inhibition ([2]; LYPLA2, inhibition, at 1 µM): 10%
- inhibition (FAAH; at 10 µM): 90%
- inhibition (FAAH; inhibition, at 1 µM): 0%

Structure (SMILES): O=C(N1CCCCC1c1ccccc1)n1cc(-c2ccc(-c3cccc(CO)c3)cc2)nn1 (centres undefined)
- inhibition (LYPLA1; at 10 µM): 95%
- inhibition (LYPLA1; inhibition, at 1 µM): 15%
- outcome [3]: active
- outcome [4]: inactive

Structure (SMILES): O=C(N1CCCCC1c1ccccc1)n1cc(-c2ccc(-c3ccccc3CO)cc2)nn1 (centres undefined)
- inhibition (LYPLA1; at 10 µM): 100%
- inhibition (LYPLA1; inhibition, at 1 µM): 20%
- inhibition (APEH; at 10 µM): 45% (inactive)
- inhibition (APEH; inhibition, at 1 µM): 0%
- inhibition ([1]; at 10 µM): 98%
- inhibition ([1]; inhibition, at 1 µM): 98%
- inhibition ([2]; LYPLA2, at 10 µM): 100%
- inhibition ([2]; LYPLA2, inhibition, at 1 µM): 20%
- inhibition (FAAH; at 10 µM): 98%
- inhibition (FAAH; inhibition, at 1 µM): 15%

More lines, now with the values ahead:

- inhibition (LYPLA1; at 10 µM): 15% (inactive)
- inhibition (LYPLA1; inhibition, at 1 µM): 0%
- inhibition (APEH; at 10 µM): 0% (inactive)
- inhibition (APEH; inhibition, at 1 µM): 0%
- inhibition ([1]; at 10 µM): 98%
- inhibition ([1]; inhibition, at 1 µM): 90%
- inhibition ([2]; LYPLA2, at 10 µM): 15% (inactive)
- inhibition ([2]; LYPLA2, inhibition, at 1 µM): 0%
- inhibition (FAAH; at 10 µM): 35% (inactive)
- inhibition (FAAH; inhibition, at 1 µM): 0%
Structure (SMILES): O=C(O)c1ccc(-c2ccc(-c3cn(C(=O)N4CCCCC4CCc4ccccc4)nn3)cc2)cc1 (centres undefined)

- inhibition (LYPLA1; at 10 µM): 90%
- inhibition (LYPLA1; inhibition, at 1 µM): 10%
- inhibition (APEH; at 10 µM): 25% (inactive)
- inhibition (APEH; inhibition, at 1 µM): 0%
- inhibition ([1]; at 10 µM): 98%
- inhibition ([1]; inhibition, at 1 µM): 98%
- inhibition ([2]; LYPLA2, at 10 µM): 90%
- inhibition ([2]; LYPLA2, inhibition, at 1 µM): 10%
- inhibition (FAAH; at 10 µM): 95%
- inhibition (FAAH; inhibition, at 1 µM): 10%
Structure (SMILES): NC(=O)c1ccc(-c2ccc(-c3cn(C(=O)N4CCCCC4c4ccccc4)nn3)cc2)cc1 (centres undefined)
